Here are results for two compounds from patent US10112974B2, “Method for the production of 18F-labeled active esters and their application exemplified by the preparation of a PSMA-specific PET-tracer” (Max-Planck-Gesellschaft zur Foerderung der Wissenschaften …, priority 2014, dated 2018).

A short description of data set [1]: Storage and solution stability of iodonium iodide 22. The class given is physicochemical.
Data set [2] has as its system LNCaP-C4-2 prostate tumor cells.
Method: Five 8-week-old male C.B-Igh-1b/IcrTac-Prkdcscid mice (Taconic) were injected subcutaneously in the neck region with 4×10^6 LNCaP-C4-2 prostate tumor cells. […] The first PET measurement was immediately followed by a CT scan during which the animal was left in the same position. Both tracers were injected i.v. through the lateral tail vein ([^18F]1-10: 21-32 MBq; [^68Ga]HBED-CC: 19-33 MBq, on two consecutive days). Emission data collection started 60 min after injection and lasted 45 min. Image reconstruction was performed using Fourier rebinning and an ordered subset expectation maximization (3D-OSEM) procedure, yielding images with voxel sizes of 0.78×0.78×0.80 mm. Image analysis was performed with VINCI 4.0 (MPI for Metabolism Research, Cologne, Germany). Tracer uptake in the tumor as well as liver, kidney, and background was determined using volumes of interest (VOIs) covering the respective structure. Significant differences were assessed using two-way repeated measures ANOVA with factors “structure” and “tracer”, followed by Holm-Sidak post hoc comparison. Tumor sizes were measured by drawing accurate tumor VOIs in the CT images, and extracting VOI volume. Tracer uptake was correlated tumor size using the Pearson correlation test.
Data set [3] concerns PSMA positive prostate tumor xenografts. Particulars: PSMA positive prostate tumor xenografts in mice; clear delineation; cited from earlier work.

On to `COc1ccc([I+]c2ccc(C(=O)Oc3c(F)c(F)cc(F)c3F)cc2)cc1.[I-]` [Compound 22, (4-Methoxyphenyl) [4-(2,3,5,6-tetrafluorophenoxycarbonyl)phenyl]iodonium iodide], for which the stability in solution result in data set [1] (in solution, especially at elevated temperatures, in DMF or DMSO already at ambient temperature) is “unstable”. The compound also showed a storage stability in data set [1] (stored at 4° C. under argon) of at least 4 months.

With `O=C(O)CCC(NC(=O)NC(CCCCNC(=O)c1ccc([18F])nc1)C(=O)O)C(=O)O` (stereo not drawn) [[^18F]1-10, 2-(3-{1-carboxy-5-[(6-[^18F]fluoro-pyridine-3-carbonyl)-amino]-pentyl}-ureido)-pentanedioic acid], the tumor tracer uptake in data set [2] (PET 60 min after i.v. injection, 45 min emission, LNCaP-C4-2 xenograft mice, tumor VOI) was determined as 1.4±1.7 % ID/g. For the same compound, the “Signal-to-noise ratio (tumor versus background)” value in data set [2] (PET 60 min after i.v. injection, LNCaP-C4-2 xenograft mice) was 5.9±4.2. The “uptake in the kidney” value in data set [2] (PET 60 min after i.v. injection, kidney VOI) is 3.0±1.9 % ID/g. The same compound registered a liver uptake in data set [2] (PET 60 min after i.v. injection, liver VOI) of 1.1±0.5 % ID/g. Further, in data set [2] (PSMA^+ PCa mice model), the “imaging characteristics compared to [^68Ga]HBED-CC (50)” value is “nearly identical” and the “kidney uptake compared to [^68Ga]HBED-CC (50)” value was “much lower”. Moreover, in data set [3], the “tumor to background ratio” value is given as “excellent”.
